In patent publication US10273461B2, “Employing human adipose-derived stem cells to propagate serum-derived hepatitis C virus and use thereof” (FRONTIER BIO-DRUG DEVELOPMENT LIMITED, priority 2015, dated 2019):

These molecules were tested on HCVser-1b (assay: Drug inhibition assay in HCVser-infected hADSC). Details: p4-5 hADSC, graded concentrations, 21 days' cell lysates, qRT-PCR, IFNα as 16 h pretreatment.
Type: cell-based, hepatitis C virus

Row | Molecule | HCV replication (viral 5'-UTR transcripts, fraction inhibition vs vehicle control)
1 | NC(=O)c1ncn([C@@H]2O[C@H](CO)[C@@H](O)[C@H]2O)n1 [ribavirin] | inhibited in a dose-responsive manner
2 | IFNα | inhibited in a dose-responsive manner
3 | cyclosporine A | inhibited in a dose-responsive manner
